The test has as its target PARP1 (Homo sapiens (Human), UniProt P09874). The test is described as follows: PARP1 protein expression level in MDA-MB-231 cells. The format is cell-based. The conditions noted are these: 24 hours. The method, then:
The cells were collected into a 1.5 mL centrifuge tube, 25 μL of RIPA lysis buffer (containing 1× protease inhibitor cocktail) was added, and the cells were lysed on ice for 15 minutes and centrifuged at 12000 rpm/min at 4° C. for 10 minutes. The supernatant was collected and the protein content was determined using the BCA method. […] DC50 values were calculated using a four-parameter non-linear fitting model in Graphpad 8.3.0 software.

Consider one compound from patent US20250222116A1, “PARP-1 DEGRADATION AGENT AND USE THEREOF” (XIZANG HAISCO PHARMACEUTICAL CO., LTD., priority 2021, published 2025).

Sequence of PARP1 (P09874 whole entry): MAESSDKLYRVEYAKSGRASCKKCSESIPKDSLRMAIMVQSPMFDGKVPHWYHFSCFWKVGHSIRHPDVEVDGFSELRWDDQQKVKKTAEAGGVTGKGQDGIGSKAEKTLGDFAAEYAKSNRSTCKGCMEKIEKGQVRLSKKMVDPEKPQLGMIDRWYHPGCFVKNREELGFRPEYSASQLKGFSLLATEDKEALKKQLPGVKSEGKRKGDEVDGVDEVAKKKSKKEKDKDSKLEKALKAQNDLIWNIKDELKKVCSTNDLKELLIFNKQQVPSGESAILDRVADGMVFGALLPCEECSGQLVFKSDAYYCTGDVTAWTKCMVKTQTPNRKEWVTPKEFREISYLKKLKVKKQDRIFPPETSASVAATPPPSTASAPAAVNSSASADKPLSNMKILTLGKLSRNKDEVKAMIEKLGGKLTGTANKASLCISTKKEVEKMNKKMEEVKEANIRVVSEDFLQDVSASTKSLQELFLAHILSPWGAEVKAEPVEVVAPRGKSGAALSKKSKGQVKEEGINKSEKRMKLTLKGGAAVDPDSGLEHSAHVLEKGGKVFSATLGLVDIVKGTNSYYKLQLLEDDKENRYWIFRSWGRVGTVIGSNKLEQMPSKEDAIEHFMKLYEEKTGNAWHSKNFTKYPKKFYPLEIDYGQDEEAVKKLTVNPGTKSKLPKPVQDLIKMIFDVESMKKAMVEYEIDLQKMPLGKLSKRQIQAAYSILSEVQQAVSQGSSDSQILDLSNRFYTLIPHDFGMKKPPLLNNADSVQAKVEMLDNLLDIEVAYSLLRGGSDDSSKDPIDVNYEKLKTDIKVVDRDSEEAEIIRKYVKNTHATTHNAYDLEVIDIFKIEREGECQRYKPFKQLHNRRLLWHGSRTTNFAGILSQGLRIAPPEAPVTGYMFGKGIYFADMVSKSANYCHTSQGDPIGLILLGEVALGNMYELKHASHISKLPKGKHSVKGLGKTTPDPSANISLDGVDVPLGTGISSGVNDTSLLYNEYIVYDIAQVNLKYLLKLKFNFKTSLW

Compound `CCc1cc2ncc(CN3CCN(c4ccc(C(=O)NC5CN(C6CCN(c7ccc8c(c7)C(=O)N(C7CCC(=O)NC7=O)C8=O)CC6)C5)nc4)CC3)cc2[nH]c1=O` (stereo not shown) [Compound 5, N-(1-(1-(2-(2,6-dioxopiperidin-3-yl)-1,3-dioxoisoindolin-5-yl)piperidin-4-yl)azetidin-3-yl)-5-(4-((7-ethyl-6-oxo-5,6-dihydro-1,5-naphthyridin-3-yl)methyl)piperazin-1-yl)picolinamide] yielded a DC50 of 0.12 nM.
